For orientation: pEC50 means −log10 of the EC50, conventionally taken in molar units. A lower pEC50 goes with a large EC50.

Drawing on publication PMC9638024, “Functional rewiring of G protein-coupled receptor signaling in human labor” (Cell Reports, 2022), this text covers EC50 for one molecule.

The target in the assay is T1, EP2 (prostaglandin E2 receptor EP2) (Homo sapiens, UniProt P43116).
T1 construct: gene PTGER2; FLAG-EP2 stably expressed in HEK 293 cells
The experiment in a line: cAMP accumulation dose-response in HEK […] cells stably expressing FLAG-EP2 (agonist). The format is cell-based. In general terms: Cyclic AMP is a second messenger, typically raised through Gs and lowered through Gi signalling.

pEC50: −log10 of the molar value.

T1 sequence (P43116 whole entry): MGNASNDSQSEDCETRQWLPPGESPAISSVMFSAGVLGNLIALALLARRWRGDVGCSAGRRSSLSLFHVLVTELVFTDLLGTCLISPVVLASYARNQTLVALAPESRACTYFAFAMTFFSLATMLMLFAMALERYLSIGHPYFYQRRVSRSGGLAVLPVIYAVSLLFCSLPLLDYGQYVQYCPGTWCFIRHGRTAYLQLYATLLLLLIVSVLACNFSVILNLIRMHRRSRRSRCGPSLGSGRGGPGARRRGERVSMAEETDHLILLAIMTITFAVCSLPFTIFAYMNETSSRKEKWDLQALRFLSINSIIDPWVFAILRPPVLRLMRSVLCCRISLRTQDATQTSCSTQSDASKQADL

In the case of `CC(C)OC(=O)COc1cccc(NC(=O)c2cc(-c3cccc(F)c3)ccc2F)c1` [PGN9856i], the pEC50 was 8.68.
